# Reference: patent US12390483B2, “Compounds and methods for treating neurological and cardiovascular conditions” (Astrocyte Pharmaceuticals, Inc., priority 2016, dated 2025)
# How the values were obtained:
# [1] = mouse plasma and tissue; Tosh et al. Purinergic Signalling (2015) 11:371-387; cited from earlier work
# [2] = test system: photothrombosis-induced stroke infarctions; test: Photothrombosis-induced stroke in mice, TTC-stained brain infarction size; type: in vivo
# Experimental: Photothrombosis-induced Stroke: Photothrombosis was performed as described in Zheng et al 2010 (PloS One 5 (12): e14401). In brief, Rose Bengal is a fluorescent dye that when injected into the vasculature and excited, generates singlet oxygen that damages the endothelial wall and induces a local thrombosis (clot). Using this technique, mice were given a 0.1 mL tail-vein injection of sterilized Rose Bengal (RB, Sigma, U.S.A.) in artificial cerebral spinal fluid (aCSF). The RB concentration was 20 mg/mL. A cortical region was centered in the imaging field and illuminated with a green laser (543 nm, 5 mW) using a 0.8-NA 40× water-immersion objective (Nikon, Tokyo). The clot formation was monitored in real time until the targeted vessel or downstream capillaries were firmly occluded. Stable clots were subsequently identified by a non-fluorescent vessel segmentation ending with highly fluorescent regions. […] Treatments, MRS4322 (0.16 mg/kg; 0.5 μmol/kg) or MRS2365 (0.24 mg/kg; 0.5 μmol/kg) were introduced via intraperitoneal injections (i.p.). […] Animals and Photothrombosis-induced Stroke: Stroke was performed as described in Zheng et al 2010 (PloS One 5 (12): e14401). Female C57Bl/6 mice (4-6 months) were used in this study. From the methods of this manuscript: Mice were anesthetized at 3% isoflurane with 100% oxygen and subsequently maintained at 1% isoflurane through a nosecone. Depth of anesthesia was monitored and regulated according to vital signs, pinch withdrawal and eye blinks. Body temperature was maintained at 37° C. by a feedback-controlled heating pad (Gaymar T/Pump). Vital signs including oxygen saturation, respiratory rate, and heart rate were continuously monitored by using the MouseOx system (STARR Life Sciences). The hair on each mouse's head was trimmed and a small incision was made in the scalp to expose the skull. A custom-made stainless steel plate was glued to the skull with VetBond Tissue Adhesive (3M, St Paul, MN). A cranial thinned-skull imaging window was created over the right primary somatosensory cortex (˜1.5 mm posterior to Bregma and 2 mm lateral from midline) depending on the experiment. In brief, a large region of the skull was first thinned with the electric drill and then further thinned with a surgical blade. The final thickness of the thinned skull was approximately 50 μm. After the cranial imaging window was created, mice were transferred to microscope stage and used for photothrombosis or imaging experiments. For the repeat imaging experiments, the plate was carefully detached from the skull and the scalp was sutured (Ethicon 6-0 sild suture). After each experiment, the mice were either returned to cages until the next timepoint or sacrificed. All procedures were approved by the Institutional Animal Care and Use Committee (IACUC) at University of Texas Health Science Center at San Antonio. Thirty minutes following stroke or sham (uninjured), mice were treated with either vehicle (saline) or drugs (MRS4322, MRS2365, MRS5698 or Cl-IBMECA). Post photothrombotic infarction evaluation. The size of cerebral infarcts was evaluated using 2,3,5-Triphenyltetrazolium chloride (TTC) staining as described in Zheng et al 2010 (PloS One 5 (12): e14401). In brief, RB-induced lesions in brain slices were stained with TTC. TTC is a colorless dye that stains healthy brain tissue red when reduced by the mitochondrial enzyme succinyl dehydrogenase (Bederson J B et al., 1986). The absence of staining in necrotic tissue is then used to define the area of a brain infarction. Mice were sacrificed by cervical dislocation, their brains removed and then placed in ice cold HBSS for 3 minutes. […] The sections were fixed in 10% buffered formaldehyde solution overnight at 4° C. Slices were imaged on a flatbed scanner (HP scanjet 8300) for analysis of the lesion size at 1200 dpi. Photothrombosis-induced Stroke: Photothrombosis was performed as described in Zheng et al. 2010 (PloS One 5 (12): e14401). […]
# GFAP expression = test: Traumatic brain injury (TBI) in mice, Western blot analysis for GFAP; type: in vivo; conditions: summary statement
# Experimental: Animals and traumatic brain injury (TBI): TBI was performed with a controlled closed skull injury model as described in […] al. 2012 (J. Neurotrauma 30, 55-66). Following the method described therein, a pneumatic impact device was used to generate a moderate TBI leaving the skull and dura matter intact. To achieve this, C57BL/6 mice were anesthetized with isoflurane (3% induction, 1% maintenance) in 100% oxygen. A body temperature of 37° C. was maintained using a temperature-controlled heated surgical table. A small midline incision was made on the scalp using aseptic surgical techniques. A 5 mm stainless steel disc was positioned on the skull and fixed using superglue on the right parietal bone between bregma and lamda over the somatosensory cortex. The mouse was then positioned on a stage directly under the pneumatic impact tip. […] Scalp incisions were closed using 4-0 nylon braided suture and antibiotic ointment applied to the incision. Mice were placed in a Thermo-Intensive Care Unit (Braintree Scientific model FV-1; 37° C.; 27% 02) and monitored until fully awake and moving freely. […] Western Blot Analysis for GFAP: At selected survival times, mice were anesthetized under isoflurane and sacrificed. The brain was removed and placed on ice for dissection into impacted and non-impacted brain hemispheres. […] The homogenate was transferred to a 2 mL tube and centrifuged at 1000 g for 10 minutes at 4° C. and the supernatant was collected and analyzed. Protein concentration was determined by the BCA assay using a 1:50 dilution. 100 μg of protein was removed as an aliquot for each sample and Laemmli buffer containing β-mercaptoethanol added and the sample placed in a heat block for 3 minutes at 95° C. Samples were loaded on a 12% gel and ran at 80 V for 20 minutes followed by 40 minutes at 130 V. Samples were transferred to nitrocellulose membrane at 100 V for 1 hour. The membrane was blocked with 5% milk in TBS-T for 30 minutes. GFAP (1:1000-Imgenex IMG-5083-A) was added and placed at 4° C. overnight. The membrane was washed with TBS-T three times for 10 minutes. Secondary antibody for GFAP (Donkey anti-rabbit HRP conjugated (ImmunoJackson Laboratories; 711-035-152; 1:20000) was applied at room temperature for 1 hour. The membranes were washed with TBS-T for 15 minutes (3 times) and developed using the Western Lightning Plus-ECL kit (PerkinElmer, Inc.) following manufacturer's directions.
# Human A3 = target: T1, Human A3 (Homo sapiens, UniProt P0DMS8); conditions: J. Med. Chem. 2002 45:4471-4484 (Gao et al.); cited from earlier work
# T1 sequence (P0DMS8 1-318): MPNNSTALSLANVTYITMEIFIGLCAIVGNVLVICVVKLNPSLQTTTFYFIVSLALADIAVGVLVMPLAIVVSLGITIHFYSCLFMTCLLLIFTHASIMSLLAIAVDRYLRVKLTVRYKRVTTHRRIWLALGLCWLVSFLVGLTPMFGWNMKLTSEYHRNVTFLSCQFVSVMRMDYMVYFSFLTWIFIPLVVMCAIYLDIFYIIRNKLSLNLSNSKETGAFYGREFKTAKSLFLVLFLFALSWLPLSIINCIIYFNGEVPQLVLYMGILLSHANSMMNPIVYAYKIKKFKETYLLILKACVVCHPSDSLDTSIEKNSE
smiles,measurement,setting,value
"CNC(=O)[C@@]12C[C@@H]1[C@@H](n1cnc3c(NCc4cccc(Cl)c4)nc(C#Cc4ccc(F)c(F)c4)nc31)[C@H](O)[C@@H]2O [MRS5698, reference compound]",protein binding reported in the literature,[1],99.88%
same,size of brain infarctions in mice pretreated with the A3 receptor antagonist MRS1523,"[2]; MRS1523 2 mg/kg i.p. at 0 and 2 hours, treatment within 30 minutes of clot formation, 24 hours",not reduced
"CNC(=O)[C@H]1O[C@@H](n2cnc3c(NCc4cccc(I)c4)nc(Cl)nc32)[C@H](O)[C@@H]1O [Cl-IB-MECA, 2-Chloro-N^6-(3-iodobenzyl)-adenosine-5′-N-methyluronamide, reference compound]",efficacy in the mouse TBI model,GFAP expression,weakly active
"CCCOC(=O)c1c(-c2ccccc2)nc(CC)c(C(=O)SCC)c1CCC [MRS1523, reference compound]",effect of antagonist on neuroprotection of MRS4322 and MRS2365 treatments after stroke,[2]; MRS1523 2 mg/kg i.p. at 0 and 2 hours,inhibits neuroprotection
Nc1nc(Cl)nc2c1ncn2[C@H]1[C@H](O)[C@H](O)[C@]2(CO)C[C@H]12 [MRS1873],size of the brain infarction (TTC staining),"[2]; Example 7: mice, 100 ul of 100 uM i.p. within 30 minutes of clot formation, 24 hours after stroke, versus vehicle",significantly reduced
same,EC50,Human A3,803 nM
